Measured values published in patent US6455526B1, “Biodegradable polymer encapsulated pharmaceutical compositions and method for preparing the same” (Aventis Pharmaceuticals, Inc., priority 1998, dated 2002).

What was measured:
[1] = tested on: A10 vs. A9 neuronal activity; conditions: after chronic administration; cited from earlier work
[2] = tested on: amphetamine-stimulated locomotion; conditions: in vivo; cited from earlier work
prepulse inhibition = conditions: cited from earlier work
myocardial tissue = conditions: cited from earlier work
Male Wistar rats = assay: Chronic Mild Stress Model of Depression (CMS), sucrose intake; assay type: in vivo, rat; conditions: for Sucrose intake in control animals / Sucrose intake in stressed animals: five weeks; for Sucrose intake in stressed animals: treatment effect
Excerpt: CMS uses mild stressors, such as food and water deprivation, cage tilts, changes of cage mates, etc. Over a period of weeks of exposure to the mild stressors, the animals gradually reduce their consumption of a highly preferred sucrose solution which persists (in untreated animals) for several weeks following the cessation of stress. This decreased sensitivity to reward (the sucrose solution) reflects anhedonia, a symptom of a Major Depressive Episode (see for example, Behavioral Pharmacol. 5: Suppl.1, p. 86 (1994) where lithium, carbamazepine and ketoconazole were evaluated in CMS; Psychopharmacology 93:358-364 (1987) where a tricyclic antidepressant was evaluated in CMS; Behavioral Pharmacology: 5:344-350 (1994) where a catechol-O-methyl transferase inhibitor was evaluated in CMS).
Male Wistar rats were brought into the laboratory two months before the start of the experiment at which time they weighed approximately 300 grams. Except as described below, the animals were singly housed, with food and water freely available, and maintained on a 12 hour light/dark cycle (lights on at 8AM) at a temperature of about 22° C.
The animals were first trained to consume a 1% sucrose solution; training consisted of eight 1 hour baseline tests in which sucrose was presented, in the home cage, following 14 hours food and water deprivation; intake was measured by weighing pre-weighed bottles containing the sucrose solution at the end of the test. Subsequently, sucrose consumption was monitored, under similar conditions, at weekly intervals throughout the whole experiment.
On the basis of their sucrose intakes in the final baseline test, the animals were divided into two matched groups. One group of animals was subjected to a chronic mild stress procedure for a period of 9 consecutive weeks. Each week of stress regime consisted of: two periods of food or water deprivation (12 and 14 hour), two periods of 45 degree cage tilt (12 and 14 hour+), two periods of intermittent overnight illumination (lights on and off every 2 hours), two 14 hour periods of soiled cage (200 ml water in sawdust bedding), two 14 hour periods of paired housing, two 14 hour periods of low intensity stroboscopic illumination (150 flashes/min). Stressors were applied continuously throughout the day and night, and scheduled randomly. Control animals were housed in a separate room and had no contract with the stressed animals. They were deprived of food and water for the 14 hours preceding each sucrose test, but otherwise food and water were freely available in the home cage. On the basis of their sucrose intake scores following 3 weeks of stress, both stressed and control animals were each divided further into matched subgroups (n=8), and for subsequent five weeks they received daily administrations of vehicle (1 ml/kg, intraperitoneally (ip)) imipramine (10 mg/kg, ip) or MDL 100,907 (0.002, 0.02 and 0.2 mg/kg orally). All drug injections were in a volume of 1 ml/kg body weight. Drugs were administered at 10AM and sucrose tests were carried out 24 hours following the last drug treatment. After five weeks, the treatments were terminated and after one week of withdrawal a final sucrose test was carried out. Stress was continued throughout the period of treatment and withdrawal.
Results were analyzed by multiple analysis of variance, followed by Fisher's LSD test for post hoc comparisons of means.

[3] = 0.002, 0.02 and 0.2 mg/kg orally daily

Structure (SMILES)	Effects on A10 vs. A9 neuronal activity [1]	Amphetamine-stimulated locomotion [2]	Disrupted PPI (prepulse inhibition) (prepulse inhibition; disruption produced by 5HT agonists in Wistar rats)	5-HT2 agonist-induced deficits in prepulse inhibition and latent inhibition (prepulse inhibition; rat, in vivo)	Duration of the action potential of myocardial tissue (myocardial tissue)	Sucrose intake in stressed animals throughout the whole treatment period (Male Wistar rats; 0.002 mg/kg orally)	Sucrose solution drunk by stressed animals at end of treatment (Week 5) (Male Wistar rats; 0.02 mg/kg orally)	Sucrose intake in stressed animals vs initial scores (Week 0) (Male Wistar rats; 0.02 mg/kg orally, after two weeks of treatment)	Sucrose solution drunk by stressed animals at end of treatment (Week 5) (Male Wistar rats; 0.2 mg/kg orally)	Sucrose intake in stressed animals vs initial scores (Week 0) (Male Wistar rats; 0.2 mg/kg orally, after three weeks of treatment)	Sucrose intake in control animals one week after withdrawal (Male Wistar rats; 0.002, 0.02, 0.2 mg/kg orally)	Sucrose intake in stressed animals one week after withdrawal (Male Wistar rats; 0.002, 0.02, 0.2 mg/kg orally)	Sucrose intake in control animals (Male Wistar rats; [3])	Sucrose intake in stressed animals (Male Wistar rats; [3])	Sucrose intake in control animals (Male Wistar rats; 10 mg/kg, ip daily)	Sucrose intake in stressed animals (Male Wistar rats; 10 mg/kg, ip daily)	Sucrose intake of drug-treated stressed animals vs drug- and saline-treated controls (Male Wistar rats; 10 mg/kg, ip, after five weeks of treatment)	Sucrose intake in stressed animals vs Week 0 scores (Male Wistar rats; 10 mg/kg, ip, after four weeks of treatment)	Increase of sucrose intake in stressed animals after withdrawal (Male Wistar rats; 10 mg/kg, ip, one week after withdrawal)
COc1cccc(C(O)C2CCN(CCc3ccc(F)cc3)CC2)c1OC (stereo not drawn) [MDL 100,907, (+)-α-(2,3-dimethoxyphenyl)-1-[2-(4-fluorophenyl)ethyl]-4-piperidinemethanol]	selective effects	blockade	restore disrupted PPI	reversal	increases	no significant effect	comparable to that of vehicle-treated controls	significantly increased	comparable to that of vehicle-treated controls	significantly increased	not significantly changed	not significantly changed	no significant effect	gradually reversed the CMS-induced deficit in sucrose intake					
CN(C)CCCN1c2ccccc2CCc2ccccc21 [Imipramine, reference compound]															no significant effect	gradual increase of sucrose intake	no significant differences	significantly increased	maintained at similar level
